The values that follow come from patent US10258603B2 (priority 2014, dated 2019).

The first assay concerns the target T1, BRD4(BD1) (Homo sapiens, UniProt O60885).
T1 construct: 42-168 was cloned, expressed, and purified to; His; made in house
The assay can be described thus: BRD4 AlphaLisa Binding Assay. An excerpt:
IC50 Measurements for Inhibitors Using BRD4 AlphaLisa Binding Assay
A word on the IC50: it is the concentration that gives 50% inhibition. Low readings indicate greater potency in that assay, high ones weaker potency in that assay. With `Cn1cc(C(=O)NCCN2CCOCC2)c2cc[nH]c2c1=O` [Example 8, 6-methyl-N-(2-morpholinoethyl)-7-oxo-1H-pyrrolo[2,3-c]pyridine-4-carboxamide], the IC50 was found to be 4.9 µM.
On the same count and under the same terms, the value for `Cn1cc(C(=O)NCCCN2CCOCC2)c2cc[nH]c2c1=O` [Example 31, 6-methyl-N-(3-morpholinopropyl)-7-oxo-1H-pyrrolo[2,3-c]pyridine-4-carboxamide] was 17 µM; that for `CN1CCN(CCNC(=O)c2cn(C)c(=O)c3[nH]ccc23)CC1` [Example 32, 6-methyl-N-[2-(4-methylpiperazin-1-yl)ethyl]-7-oxo-1H-pyrrolo[2,3-c]pyridine-4-carboxamide] was 9.8 µM; that for `Cn1cc(C(=O)N2CCC(Cc3cccnc3)CC2)c2cc[nH]c2c1=O` [Example 46, 6-methyl-4-[4-(3-pyridylmethyl)piperidine-1-carbonyl]-1H-pyrrolo[2,3-c]pyridin-7-one] was 6.4 µM.
The same measure, in the same setting: the value for `Cn1cc(C(=O)N2CCC(n3cnc4ccccc43)CC2)c2cc[nH]c2c1=O` [Example 50, 4-[4-(benzimidazol-1-yl)piperidine-1-carbonyl]-6-methyl-1H-pyrrolo[2,3-c]pyridin-7-one] was 16 µM.
Still for that read-out and setting: the value for `Cn1cc(C(=O)N2CCC(c3ccccn3)CC2)c2cc[nH]c2c1=O` [Example 55, 6-methyl-4-[4-(2-pyridyl)piperidine-1-carbonyl]-1H-pyrrolo[2,3-c]pyridin-7-one] was 9.5 µM.
In turn, `Cn1cc(C(=O)N2CCC(C(F)(F)F)CC2)c2cc[nH]c2c1=O` [Example 57, 6-methyl-4-[4-(trifluoromethyl)piperidine-1-carbonyl]-1H-pyrrolo[2,3-c]pyridin-7-one] gave an IC50 of 4.1 µM.
Still for that read-out and setting: the value for `Cn1cc(C(=O)N2CCC(C#N)CC2)c2cc[nH]c2c1=O` [Example 64, 1-(6-methyl-7-oxo-1H-pyrrolo[2,3-c]pyridine-4-carbonyl)piperidine-4-carbonitrile] was 8 µM.
Still for that read-out and setting: the value for `Cn1cc(C(=O)NCc2ccc(S(C)(=O)=O)cc2)c2cc[nH]c2c1=O` [Example 92] was 8.4 µM.
Turning to `COC(=O)[C@@H](NC(=O)c1cn(C)c(=O)c2[nH]ccc12)C1CCCCC1` [Example 93], the IC50 is 2.9 µM. This IC50 is about 2.9-fold lower than that of the compound before.

A further assay addresses T2, BRD9 (Homo sapiens, UniProt Q9H8M2).
T2 construct: 134-239 was cloned, expressed, and purified to homogeneity; Flag; made in house
T2 sequence (Q9H8M2 134-239 limits assumed): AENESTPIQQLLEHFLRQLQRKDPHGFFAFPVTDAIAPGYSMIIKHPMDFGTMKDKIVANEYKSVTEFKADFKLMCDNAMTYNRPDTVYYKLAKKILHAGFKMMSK
Kind of assay: BRD9 AlphaLisa Binding Assay. The protocol:
IC50 Measurements for Inhibitors Using BRD9 AlphaLisa Binding Assay His/Flag epitope tagged BRD9134-239 was cloned, expressed, and purified to homogeneity. […] After 20 minutes incubation at room temperature AlphaLisa Streptavidin Acceptor Beads (Perkin-A[…]) and AlphaLisa Nickel donor beads (Perkin AS 10 ID) were added to a final concentration of 15 ug/mL each.
For orientation: In Alpha technology, singlet oxygen from a donor bead excites a nearby acceptor bead.
`CN(C(=O)c1cn(C)c(=O)c2[nH]ccc12)C1CCN(c2nccc(C#N)n2)CC1` [Example 146, N-[1-(4-cyanopyrimidin-2-yl)-4-piperidyl]-N,6-dimethyl-7-oxo-1H-pyrrolo[2,3-c]pyridine-4-carboxamide] yielded an IC50 of 1.6 µM.
On the same count and under the same terms, next, `C=CCn1cc(C(=O)N(C)C2CCN(c3nccc(C(F)(F)F)n3)CC2)c2cc[nH]c2c1=O` [Example 159, 6-allyl-N-methyl-7-oxo-N-[1-[4-(trioromethyl)pyrimidin-2-yl]-4-piperidyl]-1H-pyrrolo[2,3-c]pyridine-4-carboxamide]: 4.3 µM; `C=CCn1cc(C(=O)N(C)C2CCN(c3ccncn3)CC2)c2cc[nH]c2c1=O` [Example 161, 6-allyl-N-methyl-7-oxo-N-(1-pyrimidin-4-yl-4-piperidyl)-1H-pyrrolo[2,3-c]pyridine-4-carboxamide]: 2.9 µM.
Same read-out and setting: next, `CC(C)N1CCC(CN(C)C(=O)c2cn(C)c(=O)c3[nH]ccc23)CC1` [Example 190]: 15 µM; `CC(C)CCN1CCC(N(C)C(=O)c2cn(C)c(=O)c3[nH]ccc23)CC1` [Example 217]: 4.7 µM; `CCCCn1cc(C(=O)NCC2CCN(C)CC2)c2cc[nH]c2c1=O` [Example 248]: 3.3 µM.
With `Cn1cc(C(=O)NCc2ccccc2)c2cc[nH]c2c1=O` [Example 257], the half-maximal inhibitory concentration (IC50) was found to be 0.18 µM.
Still for that read-out and setting: the value for `CCCCn1cc(C(=O)NCc2ccccc2)c2cc[nH]c2c1=O` [Example 259] was 0.6 µM.
`C/C=C/Cn1cc(C(=O)NCc2ccccc2)c2cc[nH]c2c1=O` [Example 260] yielded a concentration for half-maximal inhibition (IC50) of 0.18 µM.
On the same count and under the same terms, the value for `Cn1cc(C(=O)NCc2ccc(F)cc2)c2cc[nH]c2c1=O` [Example 263] was 0.48 µM; that for `C[C@H](NC(=O)c1cn(C)c(=O)c2[nH]ccc12)c1ccccc1` [Example 264] was 0.44 µM.
